# Measured values reported in US12145913B2, “Inhibition of Olig2 activity” (Curtana Pharmaceuticals, Inc., priority 2016, dated 2024).
# System: GBM8 human glioblastoma cells
# Test: GBM8 viability assay (Cell Titer Glo)
# Type: cell-based
# Conditions: 72 h, luminescence
# Method: Cell culture medium was prepared from a NSA proliferation kit (Neurocult) and NeuroCult supplements (Stemcell Tech Cat. #05751) and treated with 20 μL of 10 μg/mL rh EGF, 10 μL of 10 μg/mL rh bFGF and 10 μL of 0.2% Heparin. In this medium, human glioblastoma cells were cultured in ultra-low attachment tissue culture flasks until 1×10^6 cells ml was achieved (GBM4 and GBM8 are distinct neurosphere cell cultures derived from these human patient tissues). GBM4 and GBM8 cells were dissociated and 10 mL of media containing 4000 human glioblastoma cells per 90 μL were transferred to an ultra-low binding 96-well plate and incubated at 37° C. overnight. On the following day, 10 μL of a 1% DMSO solution of test compound in assay medium was added to wells containing the cell suspension and the mixture incubated at 37° C. for 3 days. At this time, the plate was removed from the incubator and allowed to reach room temperature. After about 30 minutes, 50 μL of Cell Titer Glo solution was added to each well and the plate shaken for 1 minute at low speed. After 10 minutes luminescence was recorded using a Tecan Safire2 reader.
# Reduction in luminescence compared to DMSO only control wells was used to determine the percentage inhibition of cell growth. IC50s were calculated using the % inhibition of luminescence for serial dilutions of compounds fitted to a 4-parameter fit within the Prism (San Diego) curve fitting program. Tables 1 (compounds 3-188) and 2 (compounds 190-212) show the GBM4 IC50 and GBM8 IC50 for compounds described herein.
"IC50 (Table 1, 3 days incubation) [nM]","IC50 (Table 2, 3 days incubation) [nM]",Structure (SMILES)
,500 to 5000,"CNCCCNc1cc(C(C)C)nc(NC(=O)Nc2ccc(OC(F)(F)F)cc2)n1 [Compound 198, 1-(4-isopropyl-6-((3-(methylamino)propyl)amino)pyrimidin-2-yl)-3-(4-(trifluoromethoxy)phenyl)urea]"
< 500,,"Cc1cc(N)nc(NC(=O)Nc2ccc3ccccc3c2)n1 [Compound 47, 1-(4-amino-6-methylpyrimidin-2-yl)-3-(naphthalen-2-yl)urea]"
500 to 5000,,"Cc1cc(NCCCN)nc(NC(=O)Nc2cc3ccccc3cn2)n1 [Compound 91, 1-(4-((3-aminopropyl)amino)-6-methylpyrimidin-2-yl)-3-(isoquinolin-3-yl)urea]"
< 500,,"Cc1cc(NCCCc2ncc[nH]2)nc(NC(=O)Nc2ccc3ccccc3c2)n1 [Compound 23, 1-(4-((3-(1H-imidazol-2-yl)propyl)amino)-6-methylpyrimidin-2-yl)-3-(naphthalen-2-yl)urea]"
< 500,,"Cc1cc(NCCNS(C)(=O)=O)nc(NC(=O)Nc2ccc(OC(C)C)cc2)n1 [Compound 139, N-(2-((2-(3-(4-isopropoxyphenyl)ureido)-6-methylpyrimidin-4-yl)amino)ethyl)methanesulfonamide]"
< 500,,CCCCNc1cc(C)nc(NC(=O)Nc2ccc3cnccc3c2)n1 [Compound 56]
,500 to 5000,"CN(C)CCCNc1cc(C2CC2)nc(NC(=O)Nc2ccc(OC(F)(F)F)cc2)n1 [Compound 209, 1-(4-cyclopropyl-6-((3-(dimethylamino)propyl)amino)-pyrimidin-2-yl)-3-(4-(trifluoromethoxy)phenyl)urea]"
500 to 5000,,"Cc1cc(NCCCN)nc(NC(=O)Nc2ccc3cnccc3c2)n1 [Compound 53, 1-(4-((3-aminopropyl)amino)-6-methylpyrimidin-2-yl)-3-(isoquinolin-6-yl)urea]"
< 500,,Cc1cc(NCCO)nc(NC(=O)Nc2ccc3ccccc3c2)n1 [Compound 8]
500 to 5000,,"Cc1cc(NCCCN(C)C)nc(NC(=O)Nc2ccc3ncccc3c2)n1 [Compound 105, 1-(4-((3-(dimethylamino)propyl)amino)-6-methylpyrimidin-2-yl)-3-(quinolin-6-yl)urea]"
< 500,,"Cc1cc(NCCN(C)C)nc(NC(=O)Nc2ccc(OC(C)C)cc2)n1 [Compound 137, 1-(4-((2-(dimethylamino)ethyl)amino)-6-methylpyrimidin-2-yl)-3-(4-isopropoxyphenyl)urea]"
< 500,,"Cc1cc(NCCCNS(C)(=O)=O)nc(NC(=O)Nc2ccc3ccccc3c2)n1 [Compound 37, N-(3-((6-methyl-2-(3-(naphthalen-2-yl)ureido)pyrimidin-4-yl)amino)propyl)methanesulfonamide]"
< 500,,"CCNc1cc(C)nc(NC(=O)Nc2ccc(Oc3ccccc3)cc2)n1 [Compound 134, 1-(4-(ethylamino)-6-methylpyrimidin-2-yl)-3-(4-phenoxyphenyl)urea]"
< 500,,"Cc1cc(NCCNS(C)(=O)=O)nc(NC(=O)Nc2ccc3ncccc3c2)n1 [Compound 111, N-(2-((6-methyl-2-(3-(quinolin-6-yl)ureido)pyrimidin-4-yl)amino)ethyl)methanesulfonamide]"
< 500,,"CNc1cc(C)nc(NC(=O)Nc2ccc(OC(F)(F)F)cc2)n1 [Compound 144, 1-(4-methyl-6-(methylamino)pyrimidin-2-yl)-3-(4-(trifluoromethoxy)phenyl)urea]"
500 to 5000,,"CN(C)CCCNc1ccnc(NC(=O)Nc2ccc(OC(F)(F)F)cc2)n1 [Compound 163, 1-(4-((3-(dimethylamino)propyl)amino)pyrimidin-2-yl)-3-(4-(trifluoromethoxy)phenyl)urea]"
< 500,,"CNCCCCNc1cc(C)nc(NC(=O)Nc2ccc3ccccc3c2)n1 [Compound 33, 1-(4-methyl-6-((4-(methylamino)butyl)amino)pyrimidin-2-yl)-3-(naphthalen-2-yl)urea]"
500 to 5000,,"CC(=O)NCCNc1cc(C)nc(NC(=O)Nc2ccc3ncccc3c2)n1 [Compound 110, N-(2-((6-methyl-2-(3-(quinolin-6-yl)ureido)pyrimidin-4-yl)amino)ethyl)acetamide]"
< 500,,Cc1cc(NCCCCN(C)C)nc(NC(=O)Nc2ccc3ccccc3c2)n1 [Compound 17]
< 500,,"CONc1cc(C)nc(NC(=O)Nc2ccc3cnccc3c2)n1 [Compound 61, 1-(isoquinolin-6-yl)-3-(4-(methoxyamino)-6-methylpyrimidin-2-yl)urea]"

# Second part, the molecule before the results:
Structure (SMILES),"IC50 (Table 1, 3 days incubation) [nM]","IC50 (Table 2, 3 days incubation) [nM]"
"Cc1cc(NCCC(=O)N(C)C)nc(NC(=O)Nc2ccc3ccccc3c2)n1 [Compound 42, N,N-dimethyl-3-((6-methyl-2-(3-(naphthalen-2-yl)ureido)pyrimidin-4-yl)amino)propanamide]",500 to 5000,
"Cc1cc(NCCCN(C)C)nc(NC(=O)Nc2ccc3ccccc3n2)n1 [Compound 96, 1-(4-((3-(dimethylamino)propyl)amino)-6-methylpyrimidin-2-yl)-3-(quinolin-2-yl)urea]",500 to 5000,
"Cc1cc(NCCCN)nc(NC(=O)Nc2ccc3ccccc3n2)n1 [Compound 99, 1-(4-((3-aminopropyl)amino)-6-methylpyrimidin-2-yl)-3-(quinolin-2-yl)urea]",500 to 5000,
"CC(C)c1cc(NO)nc(NC(=O)Nc2ccc(Cl)c(Cl)c2)n1 [Compound 185, 1-(3,4-dichlorophenyl)-3-(4-(hydroxyamino)-6-isopropyl-pyrimidin-2-yl)urea]",500 to 5000,
"Cc1cc(NCCCN(C)C)nc(NC(=O)Nc2ccc(Oc3ccccc3)cc2)n1 [Compound 133, 1-(4-((3-(dimethylamino)propyl)amino)-6-methylpyrimidin-2-yl)-3-(4-phenoxyphenyl)urea]",< 500,
"Cc1cc(NCCN)nc(NC(=O)Nc2ccc3cnccc3c2)n1 [Compound 52, 1-(4-((2-aminoethyl)amino)-6-methylpyrimidin-2-yl)-3-(isoquinolin-6-yl)urea]",500 to 5000,
"O=C(Nc1ccc2ccccc2c1)Nc1nccc(NO)n1 [Compound 161, 1-(4-(hydroxyamino)pyrimidin-2-yl)-3-(naphthalen-2-yl)urea]",500 to 5000,
"Cc1cc(NCCNS(C)(=O)=O)nc(NC(=O)Nc2ccc(OC(F)(F)F)c(Cl)c2)n1 [Compound 151, N-(2-((2-(3-(3-chloro-4-(trifluoromethoxy)phenyl)ureido)-6-methylpyrimidin-4-yl)amino)ethyl)methanesulfonamide]",< 500,
"Cc1cc(NCCOCCN(C)C)nc(NC(=O)Nc2ccc3ccccc3c2)n1 [Compound 28, 1-(4-((2-(2-(dimethylamino)ethoxy)ethyl)amino)-6-methylpyrimidin-2-yl)-3-(naphthalen-2-yl)urea]",< 500,
CNC(=O)CNc1cc(C)nc(NC(=O)Nc2ccc3cnccc3c2)n1 [Compound 58],< 500,
"Cc1cc(NCCCN)nc(NC(=O)Nc2ccc3occc3c2)n1 [Compound 83, 1-(4-((3-aminopropyl)amino)-6-methylpyrimidin-2-yl)-3-(benzofuran-5-yl)urea]",< 500,
"Cc1cc(NCCN)nc(NC(=O)Nc2ccc3ncccc3c2)n1 [Compound 107, 1-(4-((2-aminoethyl)amino)-6-methylpyrimidin-2-yl)-3-(quinolin-6-yl)urea]",500 to 5000,
Cc1cc(NCC(=O)N(C)C)nc(NC(=O)Nc2ccc3cnccc3c2)n1 [Compound 59],500 to 5000,
"CC(=O)NCCNc1cc(C)nc(NC(=O)Nc2ccc3occc3c2)n1 [Compound 84, N-(2-((2-(3-(benzofuran-5-yl)ureido)-6-methylpyrimidin-4-yl)amino)ethyl)acetamide]",< 500,
"Cc1cc(NCCCN(C)C)nc(NC(=O)Nc2ccc3ccncc3c2)n1 [Compound 114, 1-(4-((3-(dimethylamino)propyl)amino)-6-methylpyrimidin-2-yl)-3-(isoquinolin-7-yl)urea]",< 500,
"Cc1cc(NCCN)nc(NC(=O)Nc2ccc(OC(F)(F)F)c(Cl)c2)n1 [Compound 150, 1-(4-((2-aminoethyl)amino)-6-methylpyrimidin-2-yl)-3-(3-chloro-4-(trifluoromethoxy)phenyl)urea]",< 500,
"Cc1cc(NCCNS(C)(=O)=O)nc(NC(=O)Nc2ccc(Cl)c(Cl)c2)n1 [Compound 123, N-(2-((2-(3-(3,4-dichlorophenyl)ureido)-6-methylpyrimidin-4-yl)amino)ethyl)methanesulfonamide]",< 500,
"O=C(Nc1ccc(OC(F)(F)F)cc1)Nc1nccc(Cl)n1 [Compound 162, 1-(4-Chloropyrimidin-2-yl)-3-(4-(trifluoromethoxy)phenyl)urea]",< 500,
"Cc1cc(NCCNS(C)(=O)=O)nc(NC(=O)Nc2ccc3cnccc3c2)n1 [Compound 75, N-(2-((2-(3-(isoquinolin-6-yl)ureido)-6-methylpyrimidin-4-yl)amino)ethyl)methanesulfonamide]",< 500,
"CC(=O)NCCCNc1cc(C)nc(NC(=O)Nc2ccc3ccncc3c2)n1 [Compound 118, N-(3-((2-(3-(isoquinolin-7-yl)ureido)-6-methylpyrimidin-4-yl)amino)propyl)acetamide]",< 500,
"CNC(=O)CCNc1cc(C)nc(NC(=O)Nc2ccc3cnccc3c2)n1 [Compound 77, 3-((2-(3-(isoquinolin-6-yl)ureido)-6-methylpyrimidin-4-yl)amino)-N-methylpropanamide]",< 500,
Cc1cc(NCCc2ccccn2)nc(NC(=O)Nc2ccc3ccccc3c2)n1 [Compound 15],5000 to 30000,
